Results taken from patent publication US11160785B2, “Methods and compositions for improving cognitive function” (AgeneBio, Inc., priority 2013, dated 2021).

Columns and labels:
[1] = tested on: entorhinal cortex of aMCI subjects; test: fMRI activity in entorhinal cortex (EC) during successful memory judgments; type: in vivo, human; conditions: levetiracetam 125 mg twice a day for two weeks vs placebo
somatostatin in DG hilus = test: Somatostatin (SOM) immunohistochemistry, hilar interneuron counts in aged-impaired rats; type: in vivo, rat; conditions: 10 mg/kg/day, four-week treatment, AI-LEV vs AI-VEH p<0.01, AI-LEV vs Y p=0.679
Excerpt: Tissue was labeled with anti-SOM antiserum (Santa Cruz Biotechnology; cat. no. SC7819-P) using an established immunoperoxidase protocol and tissue sections were processed concurrently to minimize inter-replication variability (Haberman et al., 2009). The anti-SOM antiserum can detect somatostatin. Briefly, sections were washed in 0.1M phosphate-buffered saline (PBS) to remove cryoprotectant, and endogenous peroxidases were quenched in 0.3% H202 in PBS. After additional PBS washes, sections were blocked in 5% normal horse serum in PBS with 0.3% Triton. Sections were then incubated with primary antibody at a dilution of 1:1600 in PBS containing 0.15% Triton and 3% normal serum for 72 hours at 4° C. with agitation. […] The secondary antibody was detected with avidin-biotin complex (ABC Elite; Vector Laboratories Inc., Burlingame, Calif.) and the avidin-biotin complex was visualized with nickel-enhanced diaminobenzadine (Vector Laboratories Inc., Burlingame, Calif.). […]
Interneuron quantification was performed using a Zeiss Axioplan 2 microscope equipped with a motorized stage. […] Neuron counts were analyzed as the total number of hilar interneurons per hippocampal section for each rat.

aMCI subjects = test: explicit 3-alternative forced choice task (lure images); type: in vivo, human
Excerpt: See Folstein et al., J Psychiatric Res 12: 189-98, (1975); Robbins et al., Dementia 5: 266-81, (1994); Rey, L'examen clinique en psychologie, (1964); Kluger et al., J Geriatr Psychiatry Neurol 12:168-79, (1999); Marquis et al., 2002 and Masur et al., 1994, or MATRICS consensus neuropsychological test battery which includes tests of working memory, speed of processing, attention, verbal learning, visual learning, reasoning and problem solving and social cognition. Another example of a cognitive test in humans is the explicit 3-alternative forced choice task. In this test, subjects are presented with color photographs of common objects consisting of a mix of three types of image pairs: similar pairs, identical pairs and unrelated foils. The second of the pair of similar objects is referred to as the “lure”. These image pairs are fully randomized and present individually as a series of images. Subjects are instructed to make a judgment as to whether the objects seen are new, old or similar. A “similar” response to the presentation of a lure stimulus indicates successful memory retrieval by the subject.
The activity of the subject's medial temporal lobe is measured by functional MRI during the subject's participation in an explicit 3-alternative forced choice task, where participants view novel, repeated and similar (“lure”) stimuli. The Psychophysics Toolbox extensions in Matlab 7.0 (The MathWorks, Natick, Mass.) is used for stimulus presentation and behavioral data collection. Stimuli are color photographs of common objects. Each participant undergoes a series of testing runs during the functional imaging sessions, each run consisting of a mix of three types of image pairs: similar pairs, identical pairs and unrelated foils. These image pairs are fully randomized throughout the run and present individually as a series of images (see FIG. 6A). […]
The activity of the subject's medial temporal lobe is measured by functional MRI during the subject's participation in an explicit 3-alternative forced choice task, where participants view novel, repeated and similar (“lure”) stimuli. […]

[2] = tested on: DG/CA3 regions of aMCI subjects; test: fMRI activity in DG/CA3 during lure stimuli correctly identified as similar; type: in vivo, human
sematostatin in DG hilus = test: somatostatin in DG hilus after four weeks of osmotic minipump treatment (Example 5); type: in vivo, rat; conditions: levetiracetam 10 mg/kg/day in osmotic minipumps for four weeks, aged-impaired rats
[3] = tested on: reelin in Entorhinal Cortex (EC2); test: reelin in entorhinal cortex after four weeks of osmotic minipump treatment (Example 5); type: in vivo, rat; conditions: levetiracetam 10 mg/kg/day in osmotic minipumps for four weeks, aged-impaired rats

`CC[C@@H](C(N)=O)N1CCCC1=O` [levetiracetam, (2S)-2-(2-oxopyrrolidin-1-yl) butanamide] was tested, and the “EC activity during memory judgments” value [1] was “normalizes activity”, the “levels of somatostatin in DG hilus (number of SOM-immunoreactive hilar neurons)” value (somatostatin in DG hilus) was “restores the levels of somatostatin” and the “performance of aMCI subjects in the memory task (similar vs old responses to lures)” value (aMCI subjects; levetiracetam 62.5 mg BID for two weeks vs placebo, p=0.041) was “improves significantly”. The “performance of aMCI subjects in the memory task (similar vs old responses to lures)” value (aMCI subjects; levetiracetam 125 mg twice a day for two weeks vs placebo, p=0.039) was “improves significantly”, the “performance of aMCI subjects in the memory task (similar vs old responses to lures)” value (aMCI subjects; levetiracetam 250 mg BID for two weeks vs placebo, p=0.2396) was “does not significantly improve” and the “DG/CA3 hyperactivity during successful memory judgments” value ([2]; levetiracetam 62.5 mg BID for two weeks, cohort N=20) was “does not significantly reduce the DG/CA3 hyperactivity”. For the same molecule, the “DG/CA3 activity during successful memory judgments” value ([2]; levetiracetam 125 mg twice a day for two weeks vs placebo, same aMCI subjects, p=0.037) was “reduces DG/CA3 hyper-activity”, the “DG/CA3 hyperactivity during successful memory judgments” value ([2]; levetiracetam 250 mg BID for two weeks, cohort N=17) was “does not significantly reduce the DG/CA3 hyperactivity” and the “somatostatin in DG hilus” value (sematostatin in DG hilus) was “restores sematostatin in DG hilus”. The “reelin in Entorhinal Cortex (EC2)” value [3] was “restores reelin in Entorhinal Cortex (EC2)”.
